Source: PubChem BioAssay AID651649 (Sanford-Burnham Center for Chemical Genomics, 2012)
The source made the active and inactive calls.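 Rule for the calls: active = IC50 below 20 µM; inactive = the rest.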

Molecular target: CRF-binding protein / CRF-R2 receptor complex (human)
Test: CRF-BP/CRF-R2 complex antagonists, SAR follow-up, cell-based, 384-well, HEK293, calcium flux, powder samples (AID 651649)
Conditions: CRF-induced calcium flux, Fluo4

Compound	IC50
Cc1ccc2cccc(Oc3ncnc4scc(-c5ccccc5)c34)c2n1	8730 nM
O=C(O)c1ccc(COc2ccccc2C=C2C(=O)c3ccccc3C2=O)cc1	4520 nM
Cc1ccccc1-c1cc2nc(-c3ccc([N+](=O)[O-])cc3)cc(=O)n2[nH]1	> 40000 nM (inactive)
COC(=O)c1ccc(CSc2nc3ccccc3c(=O)n2-c2ccccc2)o1	5030 nM
O=C(COc1ccc2ccccc2c1)Nc1cccc(C(=O)Nc2ccccc2C(=O)O)c1	7540 nM
Cc1ccccc1Cn1ccc(NC(=O)c2cc3ncc(Br)cn3n2)n1	> 40000 nM (inactive)
Cc1ccc(S(=O)(=O)N(CC(=O)Nc2ccccc2C(=O)O)c2ccc(Cl)cc2)cc1	3220 nM
CC(=O)NC(Cc1ccc(C)cc1)C(=O)NC1CCN(c2ncccc2[N+](=O)[O-])CC1 (stereo not drawn)	2760 nM
Cc1nc2nc(SCC(=O)c3cccc([N+](=O)[O-])c3)[nH]c2cc1Br	inactive
Cn1c(COc2ccccc2)nnc1SCC(=O)c1cccc([N+](=O)[O-])c1	> 40000 nM (inactive)
COCCNc1nc2c(S(=O)(=O)c3cc(C)ccc3C)nnn2c2ccccc12	> 40000 nM (inactive)
COc1ccc(C(=O)COC(=O)c2cccnc2SC)cc1	> 20000 nM (inactive)
COc1ccc(Oc2ccc(C(F)(F)F)cc2NC(=O)c2ccc(OC)cc2)cc1	> 40000 nM (inactive)
Cc1ccc(NC(=O)c2ccccc2NS(=O)(=O)c2ccc(F)cc2)cc1S(=O)(=O)N1CCCCC1	> 40000 nM (inactive)
CC1CC(C)CN(C(=O)CSc2nc(Cc3cccs3)nc3ccccc23)C1 (stereo not drawn)	2380 nM
CC(C)(C)c1cc(C(=O)NNC(=O)Nc2cccc(Cl)c2)n(Cc2ccccc2)n1	2540 nM
O=C(COc1cc(Cl)ccc1Cl)N1CCNC1=O	5850 nM
C=CCOc1ccc(/C=C2\SC(=S)N(NS(=O)(=O)c3ccccc3)C2=O)cc1	4810 nM
Cc1ccc(-n2nnnc2SCc2nnc(-c3ccccc3Br)o2)c(C)c1	6040 nM

More lines, now with the values ahead:

IC50	Compound
1350 nM	NC(=O)c1ccc(NCc2ccco2)c([N+](=O)[O-])c1
636 nM	O=c1oc2ccc3ccccc3c2cc1-c1nnc(-c2ccccc2)o1
946 nM	CC(C)Cn1c(SCC(=O)N2CCc3ccccc3C2)nc2cc(Cl)ccc2c1=O
214 nM	COc1ccc([N+](=O)[O-])cc1NC(=O)c1ccccc1SC
1170 nM	CCOc1ccc(Cl)cc1S(=O)(=O)n1nnc2ccccc21
< 125 nM	COc1cccc2cc(-c3nnc(-c4ccccc4)o3)c(=O)oc12
1040 nM	COc1cccc(NC(=S)NC(Cc2ccccc2)c2ccccc2)c1 (stereo not drawn)
1540 nM	COc1cccc(C2CC(c3cccs3)=NN2C(=O)c2ccco2)c1O (stereo not drawn)
632 nM	Brc1ccccc1-c1nnc(CSc2nnnn2-c2ccccc2)o1
